Laboratory results as given in PubChem BioAssay (NCI).
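In this assay, cells in 96-well plates receive the compound at five concentrations for 48 hours. Endpoints are linearly interpolated between the surrounding concentrations. TGI denotes the concentration required for complete inhibition of growth.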

Key:
Test in all cases: inhibition of tumour cell growth, NCI panel, 48 h
[1] = system: 786-0 renal
[2] = system: A498 renal
[3] = system: A549 NSCLC
[4] = system: ACHN renal
[5] = system: CAKI-1 renal
[6] = system: CCRF-CEM leukemia
[7] = system: COLO 205 colon
[8] = system: DU-145 prostate
[9] = system: EKVX NSCLC
[10] = system: HCC-2998 colon
[11] = system: HCT-15 colon
[12] = system: HOP-62 NSCLC
[13] = system: HOP-92 NSCLC
[14] = system: HS 578T breast
[15] = system: HT29 colon
[16] = system: IGROV1 ovarian
[17] = system: K-562 leukemia
[18] = system: KM12 colon
[19] = system: LOX IMVI melanoma
[20] = system: M14 melanoma
[21] = system: MALME-3M melanoma
[22] = system: MCF7 breast
[23] = system: MDA-MB-231 breast
[24] = system: MDA-MB-435
[25] = system: MDA-N
[26] = system: MOLT-4 leukemia
[27] = system: NCI-H226 lung
[28] = system: NCI-H23 lung
[29] = system: NCI-H460 lung
[30] = system: NCI-H522 lung
[31] = system: NCI/ADR-RES ovarian
[32] = system: OVCAR-3 ovarian
[33] = system: OVCAR-4 ovarian
[34] = system: OVCAR-5 ovarian
[35] = system: OVCAR-8 ovarian
[36] = system: PC-3 prostate
[37] = system: RPMI-8226 leukemia
[38] = system: RXF 393 renal
[39] = system: SF-268 CNS
[40] = system: SF-295 CNS
[41] = system: SF-539 CNS
[42] = system: SK-MEL-2 melanoma
[43] = system: SK-MEL-28 melanoma
[44] = system: SK-MEL-5 melanoma
[45] = system: SK-OV-3 ovarian
[46] = system: SNB-19 CNS
[47] = system: SNB-75 CNS
[48] = system: SR leukemia
[49] = system: SW-620 colon
[50] = system: T-47D breast
[51] = system: TK-10 renal
[52] = system: U251 CNS
[53] = system: UACC-257 melanoma
[54] = system: UACC-62 melanoma
[55] = system: UO-31 renal
[56] = system: HCT-116 colon
[57] = system: HL-60(TB) leukemia
[58] = system: SN12C renal

With `CN1C(=O)CC2CCCN2C1=O` (centres undefined) the TGI [1] was > 100 µM, the TGI [2] was > 100 µM and the TGI [3] was > 100 µM. For the same compound, the TGI [4] was > 100 µM, the TGI [5] was > 100 µM and the TGI [6] was > 100 µM. For the same compound, the TGI [7] was > 100 µM, the TGI [8] was > 100 µM and the TGI [9] was > 100 µM. The TGI [10] was > 100 µM, the TGI [11] was > 100 µM and the TGI [12] was > 100 µM. The TGI [13] was > 100 µM, the TGI [14] was > 100 µM and the TGI [15] was > 100 µM. The TGI [16] was > 100 µM, the TGI [17] was > 100 µM and the TGI [18] was > 100 µM. For the same compound, the TGI [19] was > 100 µM, the TGI [20] was > 100 µM and the TGI [21] was > 100 µM. The TGI [22] was > 100 µM, the TGI [23] was > 100 µM and the TGI [24] was > 100 µM. For the same compound, the TGI [25] was > 100 µM, the TGI [26] was > 100 µM and the TGI [27] was > 100 µM. For the same compound, the TGI [28] was > 100 µM, the TGI [29] was > 100 µM and the TGI [30] was > 100 µM. The TGI [31] was > 100 µM, the TGI [32] was > 100 µM and the TGI [33] was > 100 µM. For the same compound, the TGI [34] was > 100 µM, the TGI [35] was > 100 µM and the TGI [36] was > 100 µM. For the same compound, the TGI [37] was > 100 µM, the TGI [38] was > 100 µM and the TGI [39] was > 100 µM. The TGI [40] was > 100 µM, the TGI [41] was > 100 µM and the TGI [42] was > 100 µM. For the same compound, the TGI [43] was > 100 µM, the TGI [44] was > 100 µM and the TGI [45] was > 100 µM. For the same compound, the TGI [46] was > 100 µM, the TGI [47] was > 100 µM and the TGI [48] was > 100 µM. The TGI [49] was > 100 µM, the TGI [50] was > 100 µM and the TGI [51] was > 100 µM. The TGI [52] was > 100 µM, the TGI [53] was > 100 µM and the TGI [54] was > 100 µM. For the same compound, the TGI [55] was > 100 µM.

For `Clc1ccccc1/C=C\C1(c2ccccc2)OCCO1`, the TGI [1] was 31.1 µM, the TGI [2] was 35.8 µM and the TGI [3] was > 100 µM. For the same compound, the TGI [4] was 31.4 µM, the TGI [5] was 31.3 µM and the TGI [6] was 53.8 µM. It also gave a TGI [7] of 40.2 µM, a TGI [8] of 30.3 µM and a TGI [9] of 36 µM. For the same compound, the TGI [10] was 31.9 µM, the TGI [56] was 25.2 µM and the TGI [11] was 26.3 µM. For the same compound, the TGI [57] was 73.9 µM, the TGI [12] was 39.8 µM and the TGI [13] was > 100 µM. It also gave a TGI [14] of 35.1 µM, a TGI [15] of 33.2 µM and a TGI [16] of 29.9 µM. The TGI [17] was > 100 µM, the TGI [18] was 23.7 µM and the TGI [19] was 23.7 µM. The TGI [20] was > 100 µM, the TGI [22] was 7.53 µM and the TGI [23] was 26.2 µM. The TGI [24] was 29.6 µM, the TGI [25] was 30.2 µM and the TGI [26] was 73.4 µM. The TGI [27] was 44.3 µM, the TGI [28] was 22.1 µM and the TGI [29] was 32.7 µM. For the same compound, the TGI [30] was 29.3 µM, the TGI [31] was 31.5 µM and the TGI [32] was 31.6 µM. It also gave a TGI [33] of 33 µM, a TGI [34] of 44.4 µM and a TGI [35] of 34.3 µM. For the same compound, the TGI [37] was 23.1 µM, the TGI [38] was 34.5 µM and the TGI [39] was 29.2 µM. The TGI [40] was 31.2 µM, the TGI [41] was 53.3 µM and the TGI [43] was 38 µM. The TGI [44] was 38.6 µM, the TGI [45] was 91.3 µM and the TGI [58] was 32.7 µM. It also gave a TGI [47] of 34.3 µM, a TGI [48] of 28.9 µM and a TGI [49] of 43.3 µM. For the same compound, the TGI [50] was 43.4 µM, the TGI [51] was 48.4 µM and the TGI [52] was 24.8 µM. The TGI [53] was 31.7 µM, the TGI [54] was 29.5 µM and the TGI [55] was > 100 µM.

For `CC(C)[C@]12O[C@H]1[C@@H]1O[C@@]13[C@@]1(C)CCC4=C(COC4=O)[C@@H]1C[C@@H]1O[C@@]13C2=O`, the TGI [2] was 0.0685 µM, the TGI [3] was > 100 µM and the TGI [6] was > 100 µM. The TGI [7] was 0.025 µM, the TGI [8] was > 28.9 µM and the TGI [56] was > 100 µM. The TGI [11] was > 100 µM, the TGI [57] was 0.0249 µM and the TGI [12] was 0.115 µM. For the same compound, the TGI [13] was 0.0829 µM, the TGI [14] was 0.0882 µM and the TGI [15] was > 100 µM. For the same compound, the TGI [16] was > 100 µM, the TGI [17] was > 100 µM and the TGI [18] was > 22.6 µM. The TGI [19] was > 100 µM, the TGI [20] was 0.0493 µM and the TGI [21] was 0.0541 µM. The TGI [22] was > 100 µM, the TGI [23] was 0.834 µM and the TGI [24] was 0.0264 µM. For the same compound, the TGI [25] was 0.0265 µM, the TGI [26] was 0.3 µM and the TGI [28] was < 0.0276 µM. The TGI [29] was > 100 µM, the TGI [30] was 0.328 µM and the TGI [31] was > 53.2 µM. The TGI [33] was 0.0621 µM, the TGI [34] was > 100 µM and the TGI [35] was > 100 µM. The TGI [36] was 2.11 µM, the TGI [37] was 0.063 µM and the TGI [38] was < 0.0158 µM. The TGI [39] was 0.522 µM, the TGI [40] was > 100 µM and the TGI [41] was 0.0428 µM. For the same compound, the TGI [42] was 0.0151 µM, the TGI [43] was 0.0397 µM and the TGI [44] was 0.0309 µM. For the same compound, the TGI [45] was > 100 µM, the TGI [58] was > 100 µM and the TGI [46] was > 40.9 µM. The TGI [47] was 0.0444 µM, the TGI [49] was > 42.1 µM and the TGI [50] was > 100 µM. For the same compound, the TGI [51] was > 100 µM, the TGI [52] was > 78.7 µM and the TGI [53] was 0.0669 µM. For the same compound, the TGI [54] was 0.0312 µM and the TGI [55] was > 100 µM.
